# Values quoted from earlier work in patent US20030032674A1, “Use of unsaturated fatty acids to treat severe inflammatory diseases” (priority 2001, published 2003).
# What was measured:
# [1] = infusion; cited from earlier work
# platelet aggregation = details: infusion; cited from earlier work
# [2] = test system: natural killer cell activity; details: infusion; mice and humans; cited from earlier work
substance,measurement,setting,value
"1,2,3-trieicosapentaenoyl-glycerol [EPA-TG]",urinary concentration of prostaglandin I3 and thromboxane A3,[1],increase
same,platelet aggregation,platelet aggregation,decrease
same,natural killer cell activity,[2],inhibit
